Changes are numbered by the printed parent chain. Names and notes keep the numbering of the source. Where two headings read alike, the source gives them in different places. Blank lines part the entries; values can stand above or below the molecule they belong to.
Key:
[1] = target: T1, recombinant ZMO0976 (Zymomonas mobilis, UniProt Q5NNW0); assay: Substrate and cofactor profile and Michaelis-Menten kinetics of recombinant ZMO0976; format: biochemical, Z. mobilis
T1 sequence (Q5NNW0 1-340): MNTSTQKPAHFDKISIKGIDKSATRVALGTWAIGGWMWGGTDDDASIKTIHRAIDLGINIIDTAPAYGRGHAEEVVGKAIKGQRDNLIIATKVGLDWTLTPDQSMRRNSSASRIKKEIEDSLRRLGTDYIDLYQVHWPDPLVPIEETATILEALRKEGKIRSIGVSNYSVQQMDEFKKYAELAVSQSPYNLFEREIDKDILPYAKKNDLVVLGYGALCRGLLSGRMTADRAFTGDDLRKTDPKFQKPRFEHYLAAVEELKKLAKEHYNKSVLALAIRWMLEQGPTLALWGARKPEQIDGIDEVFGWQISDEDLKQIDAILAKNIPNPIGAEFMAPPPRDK
Procedure: (§1) E. coli cells were prepared for enzymatic assays using the procedure described in, for example, Akinterinwa, and Cirino, “Heterologous expression of D-xylulokinase from Pichia stipitis enables high levels of xylitol production by engineered Escherichia coli growing on xylose,” Metabolic Engineering 11(1): pp. 48-55. Briefly, cells were harvested by centrifugation at 5,000 g at 4° C. for 30 min. Cells were washed once with extraction buffer [10 mM Tris-HCl pH 7.5, 5 mM MgCl2, 1 mM dithothreitol (DTT) and 1 mM phenylmethylsulfonyl fluoride (PMSF) (Sigma-Aldrich, St. Louis, Mo.)]. Washed cell pellets were stored at −20° C. until use. Cell pellets were resuspended to an OD of 50 in equilibration buffer (50 mM Na2HPO4, 300 mM NaCl and 10 mM imidazole at pH 8 (Sigma-Aldrich, St. Louis, Mo.)) supplemented with 1 mM DTT and 1 mM PMSF, and sonicated (8 cycles of 10 s with 30 s cooling period). Cell debris was discarded after centrifugation at 16,000 g for 20 min at 4° C. Supernatant was used as cell-free extract (CFE) for enzymatic assays. Bradford Assay was used for estimation of protein concentration in the extract. His-tagged protein in the cell-free extract was purified at 4° C. using HIS-Select® HF Nickel Affinity Gel (Sigma-Aldrich, St. Louis, Mo.), which employs immobilized metal-ion affinity chromatography (IMAC). Manufacturer's protocol for large scale purification was followed. Briefly, 10 ml of cell-free extract was added to 1 ml of affinity gel in equilibration buffer. After overnight incubation, the gel was washed five times with equilibration buffer. The bound his-tagged protein was then eluted using 2 ml of elution buffer (50 mM Na2HPO4, 300 mM NaCl and 250 mM imidazole at pH 8). Imidazole was removed by overnight dialysis at 4° C. using extraction buffer as the dialysis solution.
(§2) Cell-free extract for Z. mobilis was prepared as above except that extraction buffer was used for sonication and after which, cell debris were spun down at higher centrifugal force (53,300 g). All enzymatic assay reactions were carried out in a final volume of 200 μl on a microplate. NAD(P)H (Sigma-Aldrich, St. Louis, Mo.) absorbance was measured at 340 nm using Spectramax M5 Plus spectrophotometer (Molecular devices, Sunnyvale, Calif.). Xylose reductase was assayed in McIlvaine buffer at pH 7.2 (prepared by adding 16.5 ml of 0.2 M Na2HPO4 to 3.5 ml of 0.1 M citric acid (Sigma-Aldrich, St. Louis, Mo.)) containing 0.35 mM NADPH or NADH (as indicated) and an appropriate volume of sample (cell-free extract or purified protein) according to Viikari, L. and M. Korhola (1986), “Fructose metabolism in Zymomonas mobilis,” Applied Microbiology and Biotechnology 24(6): 471-476.
(§3) Xylose concentration in the assay mixture is indicated in the text. For measuring the catalytic activity of xylose reductase towards other substrates, similar assay conditions were used. Km and Vmax were determined by varying the substrate concentrations in the assay mixture and fitting the data to Lineweaver-Burk equation: 1/v=(Km/Vmax) […]+1/Vmax. Xylitol concentration was determined enzymatically. The reaction was carried out with a total volume of 200 μl in 42 mM Tris-HCl buffer at pH 8.5, 5 mM NAD, 10 mM MgSO4 (Sigma-Aldrich, St. Louis, Mo.), 4 U/ml sorbitol dehydrogenase (Roche Diagnostics, Indianapolis, Ind.) and 10 μl of sample. Xylitol concentration was estimated based on the amount of NADH produced by xylitol containing samples compared to that produced by xylitol standards. SDS-PAGE and Coommassie blue staining were used to confirm the expression of ZMO0976 and mZMO0976 proteins. 15 μg of cell-free extract protein and 1 μg of purified protein were loaded on a 12% Tris-HCl gel (Bio-Rad, Hercules, Calif.). Cell growth was determined by measuring optical density (OD) at 600 nm using spectrophotometer (Beckman Coulter DU 530, Brea, Calif.).

[2] = tested on: Z. mobilis; conditions: cited from earlier work
[3] = NADPH-dependent xylose reductase (XR) activity of recombinant ZMO0976/mZMO0976, E. coli UT5600 cell-free extract and purified protein; format: biochemical; conditions: for XR activities of the purified proteins: His-tag purified protein, NADPH; for Xylose reductase activity: NADPH as cofactor, purified protein or cell-free extract (CFE) as named in label
Procedure: as §1, §2
as §3, with “Xylitol concentration was estimated based on the amount of NADH produced by xylitol containing samples compared to that produced by xylitol standards. SDS-PAGE and Coommassie blue staining were used to confirm the expression of ZMO0976 and mZMO0976 proteins. 15 μg of cell-free extract protein and 1 μg of purified protein were loaded on a 12% Tris-HCl gel (Bio-Rad, Hercules, Calif.).” left out

[4] = Reductase activity of purified ZMO0976/mZMO0976 towards acetaldehyde; format: biochemical; conditions: for Specific XR activity, Acetaldehyde (520 mM): purified protein, no unit in table, in mU/mg protein
Procedure: (§4) E. coli cells were prepared for enzymatic assays using the procedure described in, for example, Akinterinwa, and Cirino, “Heterologous expression of D-xylulokinase from Pichia stipitis enables high levels of xylitol production by engineered Escherichia coli growing on xylose,” Metabolic Engineering 11(1): pp. 48-55. Briefly, cells were harvested by centrifugation at 5,000 g at 4° C. for 30 min. Cells were washed once with extraction buffer [10 mM Tris-HCl pH 7.5, 5 mM MgCl2, 1 mM dithothreitol (DTT) and 1 mM phenylmethylsulfonyl fluoride (PMSF) (Sigma-Aldrich, St. Louis, Mo.)]. Washed cell pellets were stored at −20° C. until use. Cell pellets were resuspended to an OD of 50 in equilibration buffer (50 mM Na2HPO4, 300 mM NaCl and 10 mM imidazole at pH 8 (Sigma-Aldrich, St. Louis, Mo.)) supplemented with 1 mM DTT and 1 mM PMSF, and sonicated (8 cycles of 10 s with 30 s cooling period). Cell debris was discarded after centrifugation at 16,000 g for 20 min at 4° C. Supernatant was used as cell-free extract (CFE) for enzymatic assays. Bradford Assay was used for estimation of protein concentration in the extract. His-tagged protein in the cell-free extract was purified at 4° C. using HIS-Select® HF Nickel Affinity Gel (Sigma-Aldrich, St. Louis, Mo.), which employs immobilized metal-ion affinity chromatography (IMAC). […]
(§5) Cell-free extract for Z. mobilis was prepared as above except that extraction buffer was used for sonication and after which, cell debris were spun down at higher centrifugal force (53,300 g). […] NAD(P)H (Sigma-Aldrich, St. Louis, Mo.) absorbance was measured at 340 nm using Spectramax M5 Plus spectrophotometer (Molecular devices, Sunnyvale, Calif.). […]
(§6) Xylose concentration in the assay mixture is indicated in the text. […] Km and Vmax were determined by varying the substrate concentrations in the assay mixture and fitting the data to Lineweaver-Burk equation: 1/v=(Km/Vmax) […]+1/Vmax. Xylitol concentration was determined enzymatically. […] Cell growth was determined by measuring optical density (OD) at 600 nm using spectrophotometer (Beckman Coulter DU 530, Brea, Calif.).

[5] = Reductase activity of purified ZMO0976/mZMO0976 towards benzaldehyde; format: biochemical; conditions: for Specific XR activity, Benzaldehyde (2 mM): purified protein, no unit in table, in mU/mg protein
Procedure: as §4, §5, §6

[6] = Reductase activity of purified ZMO0976/mZMO0976 towards furfural; format: biochemical; conditions: for Specific XR activity, Furfural (10 mM): purified protein, no unit in table, in mU/mg protein
Procedure: as §4, §5, §6

[7] = substrate 260 mM; NADPH cofactor; benzaldehyde = 1
[8] = 0.35 mM NADPH; Lineweaver-Burk fit

Molecule: CC=O [Acetaldehyde]
- Activity of ZMO0976 towards the substrate (in words) ([1]; NADPH as cofactor): showed activity
- Fold reduction in ZMO0976 activity with NADH as cofactor compared to NADPH ([1]; substrate 260 mM; 0.35 mM of either cofactor): 53
- Relative activity [1, 7]: 0.62

Molecule: O=Cc1ccccc1 [Benzaldehyde]
- Affinity of ZMO0976 compared with xylose (in words) [1]: one to two orders of magnitude higher
- Km, fold lower than xylose [1]: about 150 fold
- Apparent Vmax [1, 8]: 7200 ± 200 mU/mg protein
- Km ([1]; 0.35 mM NADPH; Lineweaver-Burk fit; read-out: Apparent Km): 1770 µM
- Activity of ZMO0976 towards the substrate (in words) ([1]; NADPH as cofactor): showed activity
- Relative activity ([1]; substrate 2 mM; NADPH cofactor; benzaldehyde = 1): 1

Molecule: O=C(CO)[C@@H](O)[C@H](O)[C@H](O)CO [Fructose]
- Activity of ZMO0976 towards the substrate (in words) ([1]; NADPH as cofactor): negligible activity
- Relative activity [1, 7]: 0

Molecule: O=Cc1ccco1 [Furfural]
- Affinity of ZMO0976 compared with xylose (in words) [1]: one to two orders of magnitude higher
- Apparent Vmax [1, 8]: 5000 ± 1300 mU/mg protein
- Activity of ZMO0976 towards the substrate (in words) ([1]; NADPH as cofactor): showed activity
- Km ([1]; read-out: Apparent Km; 0.35 mM NADPH; Lineweaver-Burk fit): 4150 µM
- Relative activity ([1]; substrate 5.2 mM; NADPH cofactor; benzaldehyde = 1): 0.81
- Fold reduction in ZMO0976 activity with NADH as cofactor compared to NADPH ([1]; substrate 10 mM; 0.35 mM of either cofactor): 10
- Concentration at which growth is completely inhibited [2]: 52 mM
- Concentration that reduces the growth rate of Z. mobilis by 25% [2]: 7.3 mM

Molecule: O=Cc1ccc(CO)o1 [HMF, 5-hydroxymethylfurfural]
- Activity of ZMO0976 towards the substrate (in words) ([1]; NADPH as cofactor): showed activity
- Relative activity ([1]; substrate 10 mM; NADPH cofactor; benzaldehyde = 1): 0.11
- Concentration at which growth is completely inhibited [2]: 63 mM
- Concentration that reduces the growth rate of Z. mobilis by 25% [2]: 9.5 mM

- Specific XR activity, Acetaldehyde (520 mM) [4]: 2500 ± 400
- Specific XR activity, Benzaldehyde (2 mM) [5]: 4030 ± 250
- Specific XR activity, Furfural (10 mM) [6]: 5470 ± 60
B1: ZMO0976: 341 amino acid aldo/keto reductase of Z. mobilis ZM4, His-tagged, expressed in E. coli UT5600 (protein)
chain: T1 sequence (Q5NNW0 1-340)
modifications: His tag; sequence of aldo/keto reductase ZMO0976 (see Fig. 4A)
notes: 341 amino acid aldo/keto reductase of Z. mobilis ZM4, His-tagged, expressed in E. coli UT5600
- XR activities of the purified proteins [3]: 3400 mU/mg
- Xylose reductase activity ([3]; listed as Purified recombinant ZMO0976): 3400 ± 200 mU/mg protein
- Xylose reductase activity ([3]; listed as ZM00976): 3400±200 mU/mg protein
- acetaldehyde reductase activity [4]: 2500±400 mU/mg protein
- benzaldehyde reductase activity [5]: 4030±250 mU/mg protein
- furfural reductase activity [6]: 5470±60 mU/mg protein

- Specific XR activity, Acetaldehyde (520 mM) [4]: 170 ± 30
- Specific XR activity, Benzaldehyde (2 mM) [5]: 40 ± 10
- Specific XR activity, Furfural (10 mM) [6]: 180 ± 30
B2: mZMO0976: mutated ZMO0976 from adapted strain A3, single arginine to cysteine mutation at residue 292 (C874T) (protein)
chain: T1 sequence (Q5NNW0 1-340) with R292C
modifications: His tag; sequence of aldo/keto reductase mZMO0976 (see Fig. 4B)
- XR activities of the purified proteins [3]: 140 mU/mg
- Xylose reductase activity [3]: 140 ± 50 mU/mg protein

Reference: patent US20120196342A1, “Industrial Applications of A Novel Aldo/Keto Reductase Of Zymomonas Mobilis” (priority 2011, published 2012)
